Data: patent US20080044491A1, “METAL-CONTAINING FORMULATIONS AND METHODS OF USE” (priority 2006, published 2008)
“And” between values parts separate entries of the source, which are not always exact repeats. Identical values can stand only once.

Legend:
Staph epidermidis = assay: Minimal bactericidal concentration (MBC) assay; type: cell-based, Staphylococcus epidermidis; settings: Staph epidermidis 12228 (ATCC type strain)
Experimental: (§1) Minimal bactericidal concentration (MBC) assay—Overnight-grown MIC plates, prepared as described in Example 16, were evaluated to determine the MIC. Culture was then sampled from wells at and near the MIC using sterile inoculating loops, and transferred to fresh MHA plates to determine if viable bacteria remained. […] The MBC was determined as the well in the MIC plate which contained the lowest concentration of silver yielding no bacterial growth on the MHA plate.

Ps. aeruginosa = assay: Minimal bactericidal concentration (MBC) assay; type: cell-based, Pseudomonas aeruginosa; settings: Ps. aeruginosa 27317 (ATCC type strain)
Experimental: as §1

Serratia marcescens = assay: MIC assay (microdilution); type: cell-based
Escherichia coli = assay: MIC assay (microdilution); type: cell-based
Staph. aureus = assay: Minimal bactericidal concentration (MBC) assay; type: cell-based, Staphylococcus aureus
Experimental: as §1

Staphylococcus aureus = assay: MIC assay (microdilution); type: cell-based
[1] = system: Staphylococcus epidermidis; assay: MIC assay (microdilution); type: cell-based
K. pneumoniae = assay: Minimal bactericidal concentration (MBC) assay; type: cell-based, Klebsiella pneumoniae; settings: K. pneumoniae NP403 (listed twice)
Experimental: as §1

E. coli = assay: Minimal bactericidal concentration (MBC) assay; type: cell-based, Escherichia coli
Experimental: as §1

Pseudomonas aeruginosa = assay: MIC assay (microdilution); type: cell-based
[2] = system: Mycobacterium tuberculosis H37Ra (ATCC 25177); type: cell-based
Ser. marcescens = assay: Minimal bactericidal concentration (MBC) assay; type: cell-based, Serratia marcescens
Experimental: as §1

Streptococcus pyogenes = assay: MIC assay (microdilution); type: cell-based; settings: lactate solutions, nanocrystalline silver = range for 12 samples
Shigella flexneri = assay: MIC assay (microdilution); type: cell-based; settings: Shigella flexneri ATCC 12022
Streptococcus pneumoniae = assay: MIC assay (microdilution); type: cell-based; settings: lactate solutions, nanocrystalline silver = range for 12 samples
Klebsiella pneumoniae = assay: MIC assay (microdilution); type: cell-based; settings: K. pneumoniae NP403 (listed twice)
[3] = Ser. marcescens NP402 (listed twice)
[4] = Ser. marcescens NP408 (listed twice)
[5] = E. coli 8739 (ATCC type strain)
[6] = E. coli 43745 (ATCC type strain)
[7] = Staph. aureus 6538 (ATCC type strain)
[8] = Staph. aureus 700699 (ATCC type strain)

With `O=[N+]([O-])[O-].[Ag+]` [AgNO3, silver nitrate] the MBC (Staph epidermidis) was 3 parts silver per million, the MBC (Ps. aeruginosa) was 3 parts silver per million and the MIC (Serratia marcescens; [3]) was 6 parts silver per million. The MIC (Serratia marcescens; [4]) was 6 parts silver per million and 11 parts silver per million, the MIC (Escherichia coli; [5]) was 0.4 parts silver per million and the MIC (Escherichia coli; [6]) was 1 parts silver per million. It also gave an MIC (Escherichia coli; E. coli (ATCC), lactate solutions, nanocrystalline silver = range for 12 samples) of 3 µg/mL, an MBC (Staph. aureus; [7]) of 6 parts silver per million and an MBC (Staph. aureus; [8]) of 6 parts silver per million. It also gave an MIC (Staphylococcus aureus; S. aureus (ATCC), lactate solutions, nanocrystalline silver = range for 12 samples) of 11 µg/mL, an MIC (Staphylococcus aureus; S. aureus (clin.), lactate solutions, nanocrystalline silver = range for 12 samples) of 5 µg/mL and an MIC (Staphylococcus aureus; [7]) of 6 parts silver per million. It also gave an MIC (Staphylococcus aureus; [8]) of 3 parts silver per million, an MIC ([1]; S. epiderm (ATCC), lactate solutions, nanocrystalline silver = range for 12 samples) of 3 µg/mL and an MIC ([1]; Staph epidermidis 12228 (ATCC type strain)) of 3 parts silver per million. The MBC (K. pneumoniae) was 6 parts silver per million and 3 parts silver per million, the MBC (E. coli; [5]) was 0.4 parts silver per million and the MBC (E. coli; [6]) was 0.4 parts silver per million. For the same molecule, the MIC (Pseudomonas aeruginosa; P. aerug (ATCC), lactate solutions, nanocrystalline silver = range for 12 samples) was 3 µg/mL, the MIC (Pseudomonas aeruginosa; P. aerug. (clin.), lactate solutions, nanocrystalline silver = range for 12 samples) was 3 µg/mL and the MIC (Pseudomonas aeruginosa; P. aeruginosa isolate NP212, formulation type Lactate) was 2 ppm. For the same molecule, the MIC (Pseudomonas aeruginosa; P. aeruginosa isolate NP212, formulation type Water/Lecithin) was 3 ppm, the MIC (Pseudomonas aeruginosa; P. aeruginosa isolate NP212, formulation type Water/PVA) was 3 ppm and the MIC (Pseudomonas aeruginosa; Ps. aeruginosa 9027 (ATCC type strain)) was 1 parts silver per million. For the same molecule, the MIC (Pseudomonas aeruginosa; Ps. aeruginosa 27317 (ATCC type strain)) was 2 parts silver per million, the “minimum inhibitory concentration (MIC)” value [2] was 2.5 μg/ml silver and the MBC (Ser. marcescens; [3]) was 6 parts silver per million. The MBC (Ser. marcescens; [4]) was 6 parts silver per million and 11 parts silver per million, the MIC (Streptococcus pyogenes; S. pyog (clin. 303)) was 3 µg/mL and the MIC (Streptococcus pyogenes; S. pyog (clin. 304)) was 5 µg/mL. It also gave an MIC (Shigella flexneri; formulation type Lactate) of 2 ppm, an MIC (Shigella flexneri; formulation type Water/Lecithin) of 2 ppm and an MIC (Shigella flexneri; formulation type Water/PVA) of 1 ppm. For the same molecule, the MIC (Streptococcus pneumoniae; S. pneumo (clin 314)) was 11 µg/mL, the MIC (Streptococcus pneumoniae; S. pneumo (clin 315)) was 21 µg/mL and the MIC (Klebsiella pneumoniae) was 6 parts silver per million.
